Results published in paper PMC4667226 (2015).

Assays:
Tel7 (DNA, G4) TTAGGGT [1] = assay: fluorescence titration; conditions: K+ (100 mM KCl, 10 mM potassium phosphate; quadruplex annealing buffer), pH 7.0, 25 °C; for Kd1: site 1 of 2
[2] = test system: Tel22 (DNA, G4) AGGGTTAGGGTTAGGGTTAGGG; assay: fluorescence titration; conditions: K+ (100 mM KCl, 10 mM potassium phosphate; quadruplex annealing buffer); pH 7.0, 25 °C; site 1 of 2
[3] = test system: c-myc (DNA, G4) TGAGGGTGGTGAGGGTGGGGAAGG; assay: fluorescence titration; conditions: K+ (100 mM KCl, 10 mM potassium phosphate; quadruplex annealing buffer); pH 7.0, 25 °C; site 1 of 2
[4] = test system: c-kit21up (DNA, G4) CGGGCGGGCGCGAGGGAGGGG; assay: fluorescence titration; conditions: K+ (100 mM KCl, 10 mM potassium phosphate; quadruplex annealing buffer); pH 7.0, 25 °C; single site
Tel7 (DNA, G4) TTAGGGT [5] = assay: NMR titration, NOESY and restrained MD structure; conditions: K+; 298 K, H2O/D2O 9:1; stacks at T1pT2 and G6pT7; imino signals persist to 343 K versus lost at 323 K

SMILES: C[C@@H]1O[C@@H](OC[C@H]2O[C@@H](Oc3c(-c4ccc(O)c(O)c4)oc4cc(O)cc(O)c4c3=O)[C@H](O)[C@@H](O)[C@@H]2O)[C@H](O)[C@H](O)[C@H]1O
- Kd1 (Tel7 (DNA, G4) TTAGGGT [1]): 38 nM

SMILES: O=c1c(-c2ccc(O)cc2)coc2cc(O)cc(O)c12
- Kd (Tel7 (DNA, G4) TTAGGGT [1]; same value under Kd1 and Kd2 (single binding pattern)): 26.5 µM

SMILES: O=c1c(O)c(-c2ccc(O)c(O)c2)oc2cc(O)cc(O)c12
- Kd1 (Tel7 (DNA, G4) TTAGGGT [1]): 4.9 nM
- Kd1 [2]: 30.2 nM
- Kd1 [3]: 138 nM
- Kd1 [4]: 1.13 µM
- binding (Tel7 (DNA, G4) TTAGGGT [5]): yes

SMILES: O=c1cc(-c2ccc(O)c(O)c2)oc2cc(O)cc(O)c12
- Kd1 (Tel7 (DNA, G4) TTAGGGT [1]): 23 nM
